The values that follow come from PMC3815685 (ACS chemical biology, 2013).

For test [1], the target named is PiCSAD (Polaribacter irgensii, UniProt A4C1C8). The test can be described thus: decarboxylation, OPA-HPLC, partially purified enzyme. The test is classed as biochemical. The following applies: PBS pH 7.4, 10 μM PLP, 4 °C.
The target in test [2] is T1, hCSAD (Homo sapiens, UniProt Q9Y600).
T1 sequence (Q9Y600 1-493): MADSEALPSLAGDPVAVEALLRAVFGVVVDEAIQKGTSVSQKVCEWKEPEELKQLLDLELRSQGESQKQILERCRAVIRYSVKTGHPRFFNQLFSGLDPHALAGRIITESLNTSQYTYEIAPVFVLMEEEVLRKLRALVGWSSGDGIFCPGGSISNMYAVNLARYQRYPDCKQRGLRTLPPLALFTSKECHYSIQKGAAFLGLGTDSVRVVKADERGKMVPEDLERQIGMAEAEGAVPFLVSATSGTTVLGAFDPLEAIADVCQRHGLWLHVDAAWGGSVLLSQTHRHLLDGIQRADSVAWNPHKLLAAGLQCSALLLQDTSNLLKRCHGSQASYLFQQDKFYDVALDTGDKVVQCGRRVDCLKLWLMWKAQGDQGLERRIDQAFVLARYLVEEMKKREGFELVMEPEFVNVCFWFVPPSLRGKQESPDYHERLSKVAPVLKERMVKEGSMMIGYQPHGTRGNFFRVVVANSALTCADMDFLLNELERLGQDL
The test can be described thus: inhibition of CSA decarboxylation, OPA-HPLC of hypotaurine/taurine. It is filed as biochemical.

Turning to `N[C@@H](CS(=O)O)C(=O)O` [CSA, cysteine sulfinic acid], in test [1], the “decarboxylation, OPA-HPLC, partially purified enzyme” value was “showed decarboxylation of CSA but no detectable activity towards CA or L-Glu”.

For the molecule `N[C@@H](CCC(=O)O)C(=O)O` [L-Glu, L-glutamic acid], in test [2], the half-inhibitory concentration (IC50) – broadly, the concentration that inhibits the measured activity by half – was determined as 1100 ± 100 µM.
